Measurements: patent US20180228897A1, “Compositions for Vapor Phase Delivery of Active Compounds, Methods of Making and Using Same, and Kits Comprising Same” (Atmovita, LLC, priority 2015, published 2018)
Like-named read-outs stand apart in the source and are kept apart here. Each block holds one molecule with its values, some of them ahead of it. Peptide text beside a SMILES is read from it. * marks the point of attachment. PhAc = O=C(Cc1ccccc1)*

Experiments:
Assay type in all cases: physicochemical
[1] = Preparation of compositions (Example 3): appearance and stability of the solution
[2] = Trans resveratrol solubility in stock with solvents and co-solutes (incremental addition, heat gun)
Procedure: The initial approach was to test non polar solvents and their effectiveness with ethanol. This included pure stock as a control, carvone, and combinations of those solvents with ethanol. The following solvents were prepared: Control—3.5 ml of pure stock, 1-1.75 ml of stock+1.75 ml of carvone+0.2 ml of 0.01 mol NaOH, 2-3.5 ml of pure carvone, 3-3 ml of stock+0.5 ml of ethanol, 4-3 ml of carvone+0.5 ml of ethanol.
Solution 1 became biphasic and cloudy. The control and solution 4 have approximately the same solubility of TR. […] Solvent was added until the TR was dissolved which occurred at 60 mg/ml of stock. This original solution was split into 5 test tubes of 1 ml each with about 0.06 g of TR.
The following solutions were made: 1—adding […] of carvone (equimolar with TR, 0.000263 mol of each) 2—adding 0.175 ml of ethanol 3-0.235 ml of carvone and 0.1 ml of ethanol. Solution 1 became cloudy because the carvone is immiscible with the stock. Several attempts to fix this were made using of ethanol and B3 amide as hydrotropes but it had no effect.
Next co-solutes were used along with the TR in stock solution. 0.000263 mol of the following were dissolved along with TR in 3 ml stock: 1-niacin, 2-caffeine, 3-gallic acid, 4-salicylic acid, 5-thiamine, 6-niacinamide, and 7-pantothenic acid. Two additional samples were prepared of 0.01 g biotin (8) and 0.04 g of -pyridoxine HCl (9). Each solution consisted of the stated amount of co-solute and 3 ml of stock. The following amounts of TR (which was added incrementally (30-40 mg) and heated for 3-4 minutes by heat gun) created the following:
To conduct further testing 0.5 ml of ethanol was added to the solutions with niacin, biotin, thiamine, and salicylic acid. The successful B3 amide solution was split into two solutions of (1.625 and 1.375 ml) with 0.25 ml of ethanol being added to the 1.375 ml solution. The results were as follows:
There was also testing with multiple solutes in 3 ml of stock:
Currently piperazine hexahydrate is being tested as it is another hydrotrope. […] It may work better with other co-solutes or ethanol.

[3] = Increase in solubility of active compounds in the present compositions
Excerpt: It is advantageous to take measures to increase the solubility of an active compound or active compounds within a composition that includes components that serve as excipients such that true solubilization of the compound(s) occurs and the activity of the active compounds are retained upon transition to the vapor phase. The present disclosure is based on the result that the solubility of active compounds can be increased by surprising and unexpected amounts.

[4] = Folate solubility in glycerin/2,3 butane diol stock compositions with co-solutes (incremental addition, heat gun, stirring); conditions: organic solvent or mixture, thermodynamic from solid; stock/water/ethanol solvent
Procedure: Folate. Folate and biotin are the two most difficult to dissolve B vitamins. Folate solubility enhancement was provided by addition of beta-cyclodextrin.
The solubility enhancement from mannitol/biotin alone was tested next. […] This is major improvement over most polar solvents (0.0016 g/L of water at 25° C.).
First the mannitol/biotin powder was mixed with 0.004 g of folate. This was added to the test tube followed by the liquid. It was stirred vigorously. Then it was heated with a heat gun until clear and no folate was suspended. […] All the liquid was moved to another test tube and the precipitate remained. Then folate was incrementally added (about 1 mg) and the solution was stirred, followed by heating** until it became clear. It would take at least 3 minutes of heating for it to become clear but as more folate was added, at least 4 minutes of heating were needed. This is how the original solution was formed. Over the course of several days there was no further precipitate or increase in viscosity. ** all heating was done with the yellow heat gun on the lowest setting (240° F.)
While heating and stirring the lid popped off and 0.75 ml of solution spilled out. Even accounting for folate lost in the spill, currently at least 8 mg of folate have been dissolved in 2.75 ml and the solution is completely clear. Heating the solution caused the lid to pop so it must be removed after about 1 minute and 30 seconds of heating prior to any further heating. It is also crucial for the solution to have been flipped upside down, preferably while warm. The solution must not be heated while flipped as this may cause a spill.
The original solution still has less much viscosity but also a slightly lower concentration of folate. It appears that somewhere beyond 8 mg folate/[…] of solution it becomes supersaturated, resulting in a thick gel upon settling and cooling. […] As long as supersaturation followed by settling is avoided, the solution will remain liquid. Another option is to study the effect of precipitation inhibitors or the sonicator to further boost solubility without increasing viscosity.
Testing was also done with only stock, stock+water and stock+ethanol but having both water and ethanol is crucial to the process. […] Despite having separated the liquid from the precipitate which was nearly all biotin/mannitol, the powder still played a role in improving folate solubility. […] The following composition (3 ml stock+0.25 ml water+0.25 ml ethanol+0.009 g of biotin) dissolved 11.2 mg of folate but became extremely viscous.
According to research on drug solubility there is a class of molecules known as hydrotropes (also known as chaotropes, […]). They reduce hydrophobic forces between non-polar solutes in polar solvents. One such molecule is niacinamide (vitamin B3 amide). These hydrotropes are planar and are either very polar or have nonpolar and polar sides like surfactants but shorter. This experiment was repeated with niacinamide as a cosolute and with a combination of B3 amide and Biotin. The biotin and B3 amide were added along with 4 mg of folate (and crushed together) wet into dry to the solution. The remaining folate was added incrementally along with heating and stirring. […] (2.5 ml stock+0.5 ml water+0.5 ml ethanol+0.0221 g of B3 amide) dissolved approximately 11 mg of folate and a small amount of precipitate. (2.5 ml stock+0.5 ml water+0.5 ml ethanol+0.0221 g of B3 amide+0.090 g pure biotin) dissolved approximately 11.4 mg of folate without precipitate. Unfortunately both solutions were extremely viscous after a few days.
Eventually the B3 amide and biotin cosolute solution was prepared using “reverse stock” instead of regular with the goal of lowering viscosity. The reverse stock is a solution of 3:7 mol glycerin and 2,3 butane diol. Initially this made folate precipitate so additional glycerin was added to achieve a 1:1 mol ratio of glycerin to 2,3 butane diol.

[5] = 0.693 g L-arginine and 0.693 g l-theanine in 0.75 ml stock, 2.5 ml water, 0.25 ml flavored glycerin

Molecule: N=C(N)NCCC[C@H](N)C(=O)O [L-arginine]
appearance of composition [1, 5]: clear and flavored solution

Molecule: CC(C)(CO)[C@@H](O)C(=O)NCCC(=O)O [Pantothenic Acid]
appearance of composition ([1]; 0.2 g vitamin B5 in 1.5 ml stock, 2.0 ml fruit flavored vodka, 0.1 ml flavored glycerin): clear and flavored solution

Molecule: C=C1CC[C@H](O)C/C1=C/C=C1\CCC[C@]2(C)[C@@H]([C@H](C)CCCC(C)C)CC[C@@H]12 [Vitamin D3]
increase in solubility ([3]; in the present compositions, D3 with ß-propoxy cyclodextrin): 22,000%
appearance of composition ([1]; 5 mg Vitamin D3, 15 mg βcyclodextrin, 15 mg cinnamic acid, 15 mg ethyl vanillin in 2.5 ml stock+1.0 ml water, heated at 175° C.): clear solution with flavor

Molecule: O=C(O)CCCC[C@@H]1SC[C@@H]2NC(=O)N[C@@H]21 [biotin]
increase in solubility [3]: comparable increases
solubility [4]: ~3 mg/mL

Molecule: cyanocobalamin [B12]
increase in solubility [3]: 600%
concentration of final translucent solution ([1]; water, 70% glycerin/30% 2,3 butane diol (v/v), 0.01M NaOH, 95% EtOH, room temperature): ~0.21 M

Second part, led by results:

amount of TR added ([2]; 0.000263 mol piperazine.6H2O in 1 ml stock): 0.0731 g
amount of TR dissolved ([2]; 0.0100 g B7+3.5 ml stock+0.5 ml ethanol): 0.2606 g
amount of TR dissolved ([2]; 0.0324 g B3+3.5 ml stock+0.5 ml ethanol): 0.2316 g
TR dissolved per ml ([2]; 0.048175 B3 amide+1.375+0.25 ml ethanol): 0.125 g TR/ml
TR dissolved per ml ([2]; 0.048175 B3 amide+1.625 ml): 0.125 g TR/ml
amount of TR dissolved ([2]; 0.0698 g B1+3.5 ml stock+0.5 ml ethanol): 0.2333 g
amount of TR added ([2]; 3 ml stock + 0.000263 mol caffeine (2)): 0.0131 g
amount of TR added ([2]; 3 ml stock + 0.000263 mol gallic acid (3)): 0.1784 g
amount of TR added ([2]; 3 ml stock + 0.000263 mol niacin (1)): 0.1776 g
amount of TR added ([2]; 3 ml stock + 0.000263 mol niacinamide (6)): 0.1738 g
amount of TR added ([2]; 3 ml stock + 0.000263 mol pantothenic acid (7)): 0.0131 g
amount of TR added ([2]; 3 ml stock + 0.000263 mol salicylic acid (4)): 0.1784 g
amount of TR added ([2]; 3 ml stock + 0.000263 mol thiamine (5)): 0.1808 g
amount of TR added ([2]; 3 ml stock + 0.01 g biotin (8)): 0.1733 g
amount of TR added ([2]; 3 ml stock + 0.04 g pyridoxine HCl (9)): 0.1859 g
appearance of solution ([2]; 3 ml stock + biotin (8), 0.1733 g TR): tiny amount of suspension
appearance of solution ([2]; 3 ml stock + caffeine (2), 0.0131 g TR): immediately precipitated
appearance of solution ([2]; 3 ml stock + niacin (1), 0.1776 g TR): slight visible suspension of particles
appearance of solution ([2]; 3 ml stock + pantothenic acid (7), 0.0131 g TR): cloudy solution without precipitate
amount of TR dissolved ([2]; 3 ml stock, 0.03175 g B3 amide+0.069 g B1+0.006352 g B7, footnote: immediately precipitate): 0.025 g
amount of TR dissolved ([2]; 3 ml stock, 0.0482 g B3 amide+0.03 g B1): 0.1844 g
amount of TR dissolved ([2]; 3 ml stock, 0.0482 g B3 amide+0.09 g B7, footnote: immediately precipitate): 0.025 g
solubility ([2]; glycerin/2,3 butane diol stock (70:30 mol), organic solvent or mixture, thermodynamic from solid, pure stock (70:30 mole glycerin:2,3 butane diol), read-out: solubility in stock): 60 mg/mL
solubility ([2]; organic solvent or mixture, thermodynamic from solid, flavored glycerin (with 2,3 butane diol added) instead of regular stock, read-out: solubility): 45 mg/mL
solubility ([2]; solution 2: 1 ml TR stock solution + 0.175 ml ethanol): 60 mg/mL
Molecule: Oc1ccc(/C=C/c2cc(O)cc(O)c2)cc1 [TR, Trans-resveratrol]
appearance of solution after a few days ([2]; 0.000263 mol piperazine.6H2O in 1 ml stock, 0.0731 g TR): the solution became dark and there was a small amount of precipitate
appearance of solution ([2]; 3 ml stock + gallic acid (3), 0.1784 g TR): clearly visible suspension and precipitate on bottom
appearance of solution ([2]; 3 ml stock + niacinamide (6), 0.1738 g TR): totally clear solution with low viscosity
appearance of solution ([2]; 3 ml stock + pyridoxine HCl (9), 0.1859 g TR): clearly visible suspension with precipitate
appearance of solution ([2]; 3 ml stock + salicylic acid (4), 0.1784 g TR): small amount of suspension and precipitate are visible in solution
appearance of solution ([2]; 3 ml stock + thiamine (5), 0.1808 g TR): small amount of suspension and precipitate are visible in solution
appearance and stability of composition ([1]; 0.2 g trans resveratrol, 0.12 g nicotinamide, 0.08 g ethyl vanillin, 0.06 g cinnamic acid in 3.5 ml stock): clear and flavored solution that became unstable after two weeks and precipitated

appearance of composition [1, 5]: clear and flavored solution
Molecule: CCNC(=O)CC[C@H](N)C(=O)O [l-theanine]

appearance of composition ([1]; 0.335 g noopept, 58 mg cinnamic acid in 2.0 ml stock, 2.0 ml ethanol, 0.1 ml flavored glycerin): clear and flavored solution
Molecule: CCOC(=O)CNC(=O)[C@@H]1CCCN1C(=O)Cc1ccccc1 [noopept] (PhAc-Pro-Gly-OEt)

appearance of composition ([1]; 18 mg riboflavin, 9.26 mg l-arginine in 1.5 ml stock and 2.0 ml of 0.1 mol Na2CO3): clear solution
Molecule: Cc1cc2nc3c(=O)[nH]c(=O)nc-3n(C[C@H](O)[C@H](O)[C@H](O)CO)c2cc1C [riboflavin]
